Results reported in patent publication US10874687B1 (Atea Pharmaceuticals, Inc., priority 2020, dated 2020).
Where “and” joins values, the source holds several entries; their conditions need not be identical. Identical values can stand only once. Like-named read-outs stand apart in the source and are kept apart here.

What was measured:
[1] = test system: human nasal epithelial cells
[2] = test system: human bronchial epithelial cells
human hepatocytes = test: Triphosphate levels in human hepatocytes; type: in vitro ADME; conditions: for Mean Intracellular Compound 1-6 Concentration: human hepatocytes, 10 μM Compound 1A
[3] = Prediction of human tissue levels of triphosphate from monkey tissue levels
Protocol: Based on the ratio (7.0) of human to monkey concentrations of triphosphate Compound 1-6 as assessed by its in vitro formation in primary hepatocytes, the predicted human tissue level was determined.

[4] = Lung, kidney and liver tissue levels in non-human primates after oral Compound 2A; type: in vivo, cynomolgus monkeys; conditions: for half-life: after oral Compound 2A 30 mg/kg BID for 3 days; for trough (12 h) tissue level: 12 hours after the last dose of Compound 2A
Protocol: (This corresponds to 55 ng/g (lung), 57 ng/g (kidney), and 43 ng/g (liver)). […] Plasma tough level of Compound 1-7, the surrogate for Compound 1-6 in plasma, was 39 ng/mL.

monkey hepatocytes = test: Triphosphate levels in monkey hepatocytes; type: in vitro ADME; conditions: 10 μM Compound 1A
[5] = test system: human nasal epithelial cells; test: Triphosphate levels in human nasal epithelial cells after 8 h exposure and washout
[6] = test system: human bronchial epithelial cells; test: Triphosphate levels in human bronchial epithelial cells after 8 h exposure and washout; conditions: for Mean Intracellular Compound 1-6 Concentration: bronchial cells, 10 μM Compound 1A for 8 h
in vivo = conditions: cynomolgus, cynomolgus monkey, po
[7] = Plasma PK of metabolites in non-human primates after oral Compound 2A; conditions: cynomolgus, cynomolgus monkey, in vivo, 30 mg/kg
HCoV-229E = test: Protection of BHK-21 cells from virus-induced cytopathogenicity (MTT); type: cell-based, human coronavirus; conditions: Human coronavirus 229E, BHK, 72 h, 50% protection of BHK cells, MTT, day 3 post-infection, read-out: EC50
Protocol: (§1) After a 3-day incubation at 37° C. cell viability was determined by the MTT method as described by Pauwels et al. (J. Virol. Methods 1988, 20, 309-321).
In an initial screening, BHK-21 cells acutely infected with a seasonal human alpha coronavirus, HCoV-229E, were exposed to serial dilutions of Compound 1A. […] No toxicity was detected from either drug.
(§2) BHK-21 cells: Test compounds were dissolved in DMSO at 100 mM and then diluted in Minimum Essential Medium with Earle's salts (MEM-E) containing 1 mM sodium pyruvate and 25 μg/mL kanamycin, supplemented with 10% FBS (growth medium) to final concentrations of 100, 20, 4 and 0.8 μM (two 24-well replica plates each). After BHK-21 cells were grown to confluency in 96-well plates, growth medium was replaced with fresh maintenance medium (growth medium with 1% inactivated FBS in place of 10% FBS) containing serially diluted test compound and HCoV-229E at a multiplicity of infection (MOI) of 0.01. Uninfected cells in the presence of serially diluted compound were used to assess the cytotoxicity of compounds. After a 3-day incubation at 37° C. in a humidified 5% CO2 atmosphere, cell viability was determined by the MTT method (Pauwels, R et al. J. Virol. Methods 20(4):309-321 (1988)).

[8] = test system: mock infected MES-1 cells; test: Cytotoxicity in mock infected MES-1 cells (MTT); type: cell-based; conditions: 3 days, Table 3B
Protocol: (§3) To determine the cytotoxicity, cells were seeded at an initial density of 1×10^6 cells/mL in 96 well plates containing Minimum Essential Medium with Earles's salts (MEM-E), L-glutamine, 1 mM sodium pyruvate and 25 mg/L kanamycin, supplemented with 10% fetal bovine serum. Cell cultures were then incubated at 37° C. in a humidified 5% CO2 atmosphere in the absence or presence of serial dilutions of test compounds. Cell viability was determined by the MTT method.

[9] = Cytotoxicity in mock infected MES-1 cells (MTT); type: cell-based; conditions: Table 3A
Protocol: as §3

HCoV = test: Protection of MES-1 cells from virus-induced cytopathogenicity (MTT); type: cell-based; conditions: unidentified human coronavirus, 72 h, 50% protection of MES-1 cells, day 3 post-infection
Protocol: as §1

mock infected BHK cells = test: Cytotoxicity in mock infected BHK-21 cells (MTT); type: cell-based, hamster; conditions: mock infected BHK cells; MTT; 3 days; Table 2B
Protocol: as §3, §2

[10] = Cytotoxicity in mock infected BHK-21 cells (MTT); type: cell-based, hamster; conditions: hamster, mock infected BHK-21 cells; mock infected BHK cells; MTT; 3 days; Table 2A
Protocol: as §3, §2

Compound: Nc1ccn([C@@H]2O[C@@](CO)(CCl)[C@@H](O)[C@H]2F)c(=O)n1 [ALS-8112]
- ratio of triphosphate from Compound 1A vs. the named drug [1]: 3
- ratio of triphosphate from Compound 1A vs. the named drug [2]: 5

Compound: C[C@@]1(F)[C@H](O)[C@@H](COP(=O)(O)OP(=O)(O)OP(=O)(O)O)O[C@H]1n1cnc2c(=O)[nH]c(N)nc21 [Compound 1-6]
- ratio of human to monkey hepatocyte triphosphate concentrations (human hepatocytes; assessed by AUC0-24 values): 7 fold and 7.0 fold
- Mean Intracellular Compound 1-6 Concentration (human hepatocytes; incubation 2 h): 14 µM
- Mean Intracellular Compound 1-6 Concentration (human hepatocytes; incubation 4 h): 22 µM
- Mean Intracellular Compound 1-6 Concentration (human hepatocytes; incubation 8 h): 26 µM
- Mean Intracellular Compound 1-6 Concentration (human hepatocytes; incubation 24 h): 17 µM
- Predicted Intracellular Triphosphate 1-6 Conc. at 12 hours Post-dose [3]: 0.62 µM and 0.91 µM and 0.98 µM
- predicted human lung intracellular level at trough (12 h) relative to in vitro EC90 ([3]; 1100 mg LD + 550 mg BID, EC90 against SARS-CoV-2 in HAE cell cultures): above the in vitro EC90
- half-life ([4]; monkey kidney tissue): 8.0 h
- trough (12 h) tissue level ([4]; monkey kidney): 57 ng/g
- Mean Intracellular Compound 1-6 Concentration ([4]; monkey kidney, 12 h post last dose of Compound 2A): 0.13 µM
- Mean Intracellular Compound 1-6 Concentration ([4]; monkey kidney, 24 h post last dose of Compound 2A): 0.032 µM
- Mean Intracellular Compound 1-6 Concentration ([4]; monkey kidney, 48 h post last dose of Compound 2A): 0.004 µM
- half-life ([4]; monkey liver tissue): 4.3 h
- trough (12 h) tissue level ([4]; monkey liver): 43 ng/g
- Mean Intracellular Compound 1-6 Concentration ([4]; monkey liver, 12 h post last dose of Compound 2A): 0.09 µM and 0.089 µM
- Mean Intracellular Compound 1-6 Concentration ([4]; monkey liver, 24 h post last dose of Compound 2A): 0.021 µM
- Mean Intracellular Compound 1-6 Concentration ([4]; monkey liver, 48 h post last dose of Compound 2A): Not Detected
- half-life ([4]; monkey lung tissue): 9.4 h
- trough (12 h) tissue level ([4]; monkey lung): 55 ng/g
- Mean Intracellular Compound 1-6 Concentration ([4]; monkey lung, 12 h post last dose of Compound 2A): 0.14 µM
- Mean Intracellular Compound 1-6 Concentration ([4]; monkey lung, 24 h post last dose of Compound 2A): 0.037 µM
- Mean Intracellular Compound 1-6 Concentration ([4]; monkey lung, 48 h post last dose of Compound 2A): 0.009 µM
- triphosphate concentration in the lung compared to the liver ([4]; monkey, 12-hour steady-state trough, oral Compound 2A 30 mg/kg BID): 1.6 fold
- Mean Intracellular Compound 1-6 Concentration (monkey hepatocytes; incubation 2 h): 2.1 µM
- Mean Intracellular Compound 1-6 Concentration (monkey hepatocytes; incubation 4 h): 3.1 µM
- Mean Intracellular Compound 1-6 Concentration (monkey hepatocytes; incubation 8 h): 2.9 µM
- Mean Intracellular Compound 1-6 Concentration (monkey hepatocytes; incubation 24 h): 1.7 µM
- half-life ([5]; intracellular triphosphate in nasal cells after exposure to 10 μM Compound 1A): 38 h
- half-life ([5]; intracellular triphosphate in nasal epithelial cells after Compound 1A): over 1.5 days
- half-life ([5]; intracellular triphosphate in nasal epithelial cells after Compound 1A, listed as active triphosphate species): greater than 1.5 days
- Mean Intracellular Compound 1-6 Concentration ([5]; nasal cells, 10 μM Compound 1A for 8 h, 24 h after washout): 170 µM
- Mean Intracellular Compound 1-6 Concentration ([6]; 15 h after washout): 560 µM
- Mean Intracellular Compound 1-6 Concentration ([6]; 48 h after washout): 290 µM
- half-life ([6]; intracellular triphosphate in bronchial cells after exposure to 10 μM Compound 1A): 39 h
- half-life ([6]; intracellular triphosphate in bronchial epithelial cells after Compound 1A): over 1.5 days
- half-life ([6]; intracellular triphosphate in bronchial epithelial cells after Compound 1A, listed as active triphosphate species): greater than 1.5 days

Compound: C[C@@]1(F)[C@H](O)[C@@H](CO)O[C@H]1n1cnc2c(=O)[nH]c(N)nc21 [Compound 1-7, 2-amino-9-((2R,3R,4R,5R)-3-fluoro-4-hydroxy-5-(hydroxymethyl)-3-methyltetrahydrofuran-2-yl)-1,9-dihydro-6H-purin-6-one]
- concentration at 12 h (in vivo): 39 ng/mL
- AUC(0-t) (in vivo; 30 mg/kg): 0.47 µM·h
- half-life (in vivo; 30 mg/kg): 17 h
- Cmax [7]: 160 nM
- Tmax [7]: 2 h

Compound: CNc1nc(N)nc2c1ncn2[C@@H]1O[C@H](CO[P@](=O)(N[C@@H](C)C(=O)OC(C)C)Oc2ccccc2)[C@@H](O)[C@@]1(C)F [Compound 1B]
- EC50 (HCoV-229E; Table 2A): 2500 nM
- EC50 (HCoV-229E; Table 2B): 2900 nM
- CC50 [8]: > 100000 nM
- CC50 at 3 days [9]: > 100000 nM
- EC50 (HCoV; Table 3A): 2000 nM
- EC50 (HCoV; Table 3B): 2200 nM
- CC50 (mock infected BHK cells): > 100000 nM
- CC50 at 3 days [10]: > 100000 nM
